Laboratory results taken from PubChem BioAssay (NCI).
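Where inhibition never reached the appropriate level, the endpoint shown equals the highest concentration tested. Otherwise, values were interpolated linearly from a five-concentration, 48-hour dose response in 96-well plates. The concentration for full growth arrest is given as TGI.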

Legend:
Experiment in all cases: NCI anticancer screen, dose series, 48 h
DU-145 prostate = test system: DU-145 prostate
MDA-MB-435 = test system: MDA-MB-435
HOP-92 NSCLC = test system: HOP-92 NSCLC
PC-3 prostate = test system: PC-3 prostate
SNB-19 CNS = test system: SNB-19 CNS
HOP-62 NSCLC = test system: HOP-62 NSCLC
U251 CNS = test system: U251 CNS
SK-MEL-2 melanoma = test system: SK-MEL-2 melanoma
RXF 393 renal = test system: RXF 393 renal
SR leukemia = test system: SR leukemia
UO-31 renal = test system: UO-31 renal
OVCAR-8 ovarian = test system: OVCAR-8 ovarian
MDA-N = test system: MDA-N
T-47D breast = test system: T-47D breast
COLO 205 colon = test system: COLO 205 colon
KM12 colon = test system: KM12 colon
HCC-2998 colon = test system: HCC-2998 colon
MDA-MB-231 breast = test system: MDA-MB-231 breast
UACC-257 melanoma = test system: UACC-257 melanoma
NCI-H226 lung = test system: NCI-H226 lung

Structure (SMILES)	TGI (DU-145 prostate)	TGI (MDA-MB-435)	TGI (HOP-92 NSCLC)	TGI (PC-3 prostate)	TGI (SNB-19 CNS)	TGI (HOP-62 NSCLC)	TGI (U251 CNS)	TGI (SK-MEL-2 melanoma)	TGI (RXF 393 renal)	TGI (SR leukemia)	TGI (UO-31 renal)	TGI (OVCAR-8 ovarian)	TGI (MDA-N)	TGI (T-47D breast)	TGI (COLO 205 colon)	TGI (KM12 colon)	TGI (HCC-2998 colon)	TGI (MDA-MB-231 breast)	TGI (UACC-257 melanoma)	TGI (NCI-H226 lung)
C=C1C2CCC3(CCC4C5(C)CCCC4(C=[N+](CCO)C5)C3C2)C1O (stereo not given)	> 100 µM	> 100 µM	> 100 µM	> 100 µM	> 100 µM	> 100 µM	> 100 µM	> 100 µM	> 100 µM	> 100 µM	> 100 µM	> 100 µM	> 100 µM	> 100 µM	> 100 µM	> 100 µM	> 100 µM	> 100 µM	> 100 µM	–
Nc1[nH]c(=O)[nH]c(=O)c1Cc1cccc(Cl)c1	–	> 100 µM	> 100 µM	> 100 µM	> 100 µM	> 100 µM	> 100 µM	> 100 µM	> 100 µM	–	> 100 µM	> 100 µM	> 100 µM	> 100 µM	> 100 µM	> 100 µM	> 100 µM	> 100 µM	> 100 µM	> 100 µM
c1cc(CN2CCNCCNCCNCC2)cc(CN2CCNCCNCCNCC2)c1	> 100 µM	> 100 µM	–	> 100 µM	> 100 µM	> 100 µM	> 100 µM	> 100 µM	–	> 100 µM	> 100 µM	> 100 µM	> 100 µM	> 100 µM	> 100 µM	> 100 µM	> 100 µM	> 100 µM	> 100 µM	> 100 µM
CSc1nc2c3ccccc3ccn2c1C(=O)N/N=C/c1ccccc1	> 100 µM	> 100 µM	> 33.8 µM	> 100 µM	–	27.2 µM	37.7 µM	> 100 µM	> 79.4 µM	> 100 µM	42.7 µM	44.7 µM	> 100 µM	> 90.2 µM	> 100 µM	> 100 µM	> 100 µM	40.8 µM	> 100 µM	> 100 µM
O=C(Nc1ccc2[nH]c(C(=O)N3CC(CCl)c4ccc([N+](=O)[O-])cc43)cc2c1)c1cc2ccccc2o1 (stereo not given)	> 1100 µM	> 1100 µM	> 1100 µM	–	> 1100 µM	> 1100 µM	> 1100 µM	> 1100 µM	> 1100 µM	–	> 1100 µM	> 1100 µM	> 1100 µM	> 1100 µM	> 1100 µM	> 1100 µM	> 1100 µM	> 1100 µM	> 1100 µM	> 1100 µM
CSc1c(C#N)c(S)n(-c2ccc(Cl)cc2)c(=O)c1C#N	> 100 µM	> 100 µM	–	> 100 µM	> 100 µM	–	> 100 µM	> 100 µM	> 100 µM	> 100 µM	95.8 µM	> 100 µM	> 100 µM	> 100 µM	> 100 µM	> 100 µM	> 100 µM	> 100 µM	> 100 µM	> 100 µM
NC(=O)c1sc2nc3ccccc3n2c1N	> 100 µM	> 100 µM	> 100 µM	> 100 µM	> 100 µM	> 100 µM	87.4 µM	99.2 µM	74.8 µM	–	> 100 µM	> 100 µM	> 100 µM	> 100 µM	> 100 µM	–	> 100 µM	> 100 µM	> 100 µM	> 100 µM
COc1ccccc1C1c2cc3c(cc2OC(N2CCCC2)C1C)OCO3 (stereo not given)	26.9 µM	34.2 µM	20.6 µM	32.4 µM	47.9 µM	29.4 µM	39.1 µM	29.8 µM	36.9 µM	31.1 µM	33 µM	64 µM	28.9 µM	25.5 µM	35.6 µM	39.5 µM	32.9 µM	–	48.1 µM	–
COc1ccc(-n2c(C)nc3ccc(NC4OC(CO)C(O)C(O)C4O)cc3c2=O)cc1 (stereo not given)	> 100 µM	> 100 µM	–	> 100 µM	> 100 µM	> 100 µM	> 100 µM	> 100 µM	> 100 µM	> 100 µM	> 100 µM	> 100 µM	> 100 µM	> 100 µM	> 100 µM	> 100 µM	> 100 µM	> 100 µM	> 100 µM	> 100 µM
CN1CCC/C1=C1/C(=O)N(c2ccccc2)N=C1c1ccc[nH]1	> 100 µM	> 100 µM	–	> 100 µM	> 100 µM	> 100 µM	> 100 µM	> 100 µM	> 100 µM	> 100 µM	> 100 µM	> 100 µM	> 100 µM	> 100 µM	> 100 µM	> 100 µM	> 100 µM	> 100 µM	> 100 µM	> 100 µM
Cc1ccc(S(=O)(=O)N2CC(CCN)c3ccccc32)cc1 (stereo not given)	31.3 µM	27.1 µM	52.7 µM	29 µM	31.3 µM	> 29.1 µM	18.4 µM	13.4 µM	12.6 µM	> 100 µM	27.4 µM	27 µM	11 µM	–	24.3 µM	> 100 µM	30.3 µM	29.9 µM	33.9 µM	11.6 µM
C=C(C)CCC1CC=[N+]([O-])OC1C(C)(C)C (stereo not given)	> 100 µM	40.7 µM	> 100 µM	–	–	> 100 µM	> 100 µM	–	> 100 µM	> 100 µM	85.7 µM	> 100 µM	> 100 µM	90.1 µM	> 100 µM	64.8 µM	> 100 µM	66.8 µM	> 100 µM	48.9 µM
